Measured values from US11389423B2, “Pharmaceutical composition, excipient for the composition and use of the composition” (priority 2018, dated 2022).

How the values were obtained:
male rabbits [1] = experiment: Arterial blood gas analysis; type: in vivo, New Zealand rabbits; conditions: male rabbits, 17, 51 and 170 mg/kg by gavage
Procedure: (§1) Male New Zealand rabbits (n=6 per group) were used for pharmacological safety tests. All tests were performed orally (route recommended for humans) and the investigated parameters were determined after a single administration of CBD-SINT. CBD-SINT doses were determined by allometric extrapolation from the average dose used in human patients (25 mg/kg).
(§2) The dose of 51 mg/kg was used as the intermediate dose, stipulating a higher and a lower dose. Three dose ranges were used according to the Guide for Conducting Non-Clinical Toxicology and Pharmacological Safety Studies Necessary for Drug Development (ANVISA, 2013; Version 1.2). Thus, the doses used were 17, 51 and 170 mg/kg of CBD-SINT.
After 6-h fasting, three doses of CBD-SINT (17, 51 and 170 mg/kg) were administered to different groups of male rabbits by gavage. […] The respiratory rate was determined using a Kofranyi-Michaelis respirometer (Murphy, 2002). […] All parameters below were determined on a Cobas b 221 multiparametric blood gas analyzer (Roche Diagnostics, Rotkreuz, Switzerland): pH, PCO2 (mm Hg), PO2 (mm Hg), SO2(%), Htc (%), tHb (g/dL), Na+ (mmol/L), K+ (mmol/L), Ca2+ (mmol/L), Cl− (mmol/L), glucose (mg/dL), lactate (mmol/L), O2Hb (%), HHb (%), P50 (mm Hg), H+ (nmol/L), BE (nmol/L), BEecf (nmol/L), BB (mmol/L), cHCO3 (mmol/L), ctCO2 (B) (mmol/L), ctCO2 (P) (mmol/L) and ctO2 (% by volume).

male rabbits [2] = experiment: Effects on central nervous system, modified Irwin test; type: in vivo, New Zealand rabbits; conditions: male rabbits, 17, 51 and 170 mg/kg by gavage, single dose
Procedure: as §1, §2
Effects on the central nervous system were assessed in male rabbits according to the modified Irwin test (Roux et al., 2005).
After 6 h-fasting, three doses of CBD (17, 51 and 170 mg/kg) were administered to different groups of male rabbits by gavage. Placebo was administered to the control group (1 mL/kg). The solid diet was released to the animals 1 hour after the treatments.
The clinical and behavioral effects were assessed at 0-15 min, 15, 30, 60, 120 and 180 min and 24 h after administrations. […]

[3] = test system: rats with 6-OHDA microinfusion into the substantia nigra; experiment: Morris water maze (cued test/memory version), 6-OHDA model; type: in vivo; conditions: 6-OHDA rats, 36 or 120 mg/kg orally, day 18 to day 28
Procedure: For the experiments with 6-OHDA, the animals were divided into the following groups: • 6-OHDA+placebo • 6-OHDA+CBD-SINT 12 mg/kg • 6-OHDA+CBD-SINT 36 mg/kg • 6-OHDA+CBD-SINT 120 mg/kg • Sham+placebo • Naive
After the recovery period, CBD-SINT and placebo were administered orally (gavage) for 28 days. Locomotor activity tests were performed only at the end of treatments (day 28). The memory tests (Morris water maze) were performed daily from day 18 to day 28 (FIG. 14).
The rats were submitted to stereotactic surgery (stereotactic—David Kopf, model 957L) and received bilateral microinfusion of MPTP or 6-OHDA (different groups of rats) directly into the substantia nigra. For surgery, the following stereotaxic coordinates were used: anteroposterior: 5.0 mm from the bregma; mediolateral: ±2.1 mm from the midline and dorsoventral: −7.7 mm from the cranial vault (Paxinos and Watson, 1986). Then, 100 μg MPTP (diluted in 1 μL saline, with a flow of 0.33 μL/min) or 8 μg 6-OHDA (diluted in 2 μL saline with 0.2 μg/μL ascorbic acid, with a flow rate of 0.33 μL/min) were injected. […]
The animals were subjected to the same procedure until the four starting points are completed. […] The latency (time it takes the animals to find the platform) and the speed of the animals were quantified by the 2020 Plus Tracking System software.

## C=C(C)[C@@H]1CCC(C)=C[C@H]1c1c(O)cc(CCCCC)cc1O [CBD-SINT, Cannabidiol]
Male rabbits [1]
  arterial blood gases, electrolytes and metabolites (pH, PCO2, PO2, SO2, Htc, tHb, Na+, K+, Ca2+, Cl-, glucose, lactate, O2Hb, HHb, P50, H+, BE, BEecf, BB, cHCO3, ctCO2, ctO2) vs placebo: none of the CBD-SINT doses changed
Male rabbits [2]
  animals' behavior or physiological status until the end of the 24 h: no significant changes
  inactivity or refusal to consume food or water during the observation period (24 h): none of the experimental animals was inactive or refused to consume food or water
[3]
  latency time to find the platform (memory deficit): did not show this deficit
